Experiments:
[1] = Study A17: PK of fospropofol and propofol after single oral dose of fospropofol disodium 800 mg in subjects with migraine
Description: The study is planned to complete approximately 85 subjects. • Enrolled subjects will be asked to come to the study site for treatment when they experience a qualifying migraine headache. Dosing must occur within 4 hours after onset of the migraine symptoms. If treatment at the study site is not feasible or practicable within 4 hours after onset of migraine symptoms, subjects should use their usual medication for that headache and attempt to visit the clinic for treatment as soon as possible (within 4 hours) after onset of their next migraine headache. Dosing must occur within 60 days after enrollment (see Post-enrollment Period below). • At clinic check-in for treatment, study personnel will verify eligibility for closing regarding the criteria for a qualifying headache and adherence to post-enrollment study restrictions (see Eligibility for Dosing below). • Treatment will consist of a single oral dose of fospropofol disodium. […] Because the prevalence of migraine headaches is higher in women than in men, efforts will be made to enroll at least 50% women. • Subjects must meet the general inclusion and exclusion criteria listed below (Inclusion Criteria and Exclusion Criteria) at screening to be enrolled in the study. To be eligible for fospropofol disodium treatment after onset of a migraine headache, enrolled subjects must meet criteria specific to the presenting headache at clinic check-in (see Qualifying Headache below) and adhere to study restrictions specific to the period between enrollment and clinic check-in (see Post-enrollment Restrictions below). • Inclusion Criteria Subjects must meet all of the following criteria at screening to be enrolled in the study: • 1. Written informed consent approved by the Institutional Review Board (IRB) given before any study-related procedures are performed • 2. […] Complete abstinence alone can be used as a method of contraception. • 6. […] Able to comprehend the nature of the study, capable of giving written informed consent, and able to communicate effectively with clinic staff (as assessed by the investigator) • 8. Available to volunteer for the entire study duration and willing to adhere to all protocol requirements, including the post-enrollment restrictions (see Post-enrollment Restrictions below) • 9. Agrees not to post any information related to the study on any website or social media site (e.g., Facebook, Twitter, LinkedIn, Google+, etc.) until the entire trial has been completed • 10. Willing to forgo rescue medicine for at least 2 hours after initiation of treatment with study drug (see In-Clinic Rescue Medicine) • Exclusion Criteria Subjects to whom any of the following criteria apply at screening will be excluded: • 1. History of hemiplegic migraine (at any time in the past). • 2. History of headaches of any type occurring on ≥15 days/month during any of the 3 months prior to screening. • 3.

[2] = Study A16 Part 1: PK of single ascending oral doses of fospropofol disodium (200 to 2000 mg), fasted healthy adults; format: in vivo, human; conditions: for AUC(0-inf) / Cmax / Tmax / AUC(0-t) / half-life: both sexes, human, plasma
Description: Part 1 of Study A16 was a double-blind, randomized, placebo-controlled study to investigate the safety-tolerability and PK of oral administration of single ascending doses of fospropofol disodium to healthy adult male and female volunteers.
Subjects were healthy adults (age 18-55 years inclusive, BMI 18-29.9 kg/m^2). Separate cohorts of 12 subjects each were randomized to receive fospropofol disodium at doses of 200, 400, 800, 1000, 1200, 1600, or 2000 mg (n=10 per cohort) or matching placebo (n=2 per cohort).
Subjects were admitted to the clinical unit for an overnight fast (Day −1), administered study drug on Day 1, and remained in the clinical unit until Day 2.
Fospropofol disodium was formulated as powder in an HPMC capsule, each capsule containing 200 mg of fospropofol disodium (weight adjusted for water content). Placebo was administered as an appropriate number of matching capsules.
Based on PK results from the early cohorts, sampling times were optimized beginning with Cohort 3 (800 mg) to preclose, 5, 10, 15, 20, 25, 30, 37, and 45, minutes and 1, 2, 4, 6, and 9 hours after closing.

[3] = 200, 400, 800, and 1000 mg cohorts
[4] = oral fospropofol disodium 200 mg, mean
[5] = oral fospropofol disodium 400 mg, mean
[6] = oral fospropofol disodium 800 mg, mean
[7] = oral fospropofol disodium 1000 mg, mean, n = 9
[8] = oral fospropofol disodium 1600 mg, mean
[9] = oral fospropofol disodium 2000 mg, mean

In the case of `CC(C)c1cccc(C(C)C)c1O` [propofol, 2,6-diisopropylphenol], the “Variability in propofol log AUC1 accounted for by time-to-treatment” value ([1]; 800 mg, 11 migraine subjects) is reported as roughly 63%, the “Variability in propofol log AUC2 accounted for by time-to-treatment” value ([1]; 800 mg, 11 migraine subjects) is reported as roughly 55% and the “Variability in propofol log AUC4 accounted for by time-to-treatment” value ([1]; 800 mg, 11 migraine subjects) is reported as roughly 40%. For the same compound, the “Variability in propofol log Cmax accounted for by time-to-treatment” value ([1]; 800 mg, 11 migraine subjects) was roughly 57%, the “Association between time-to-treatment and log propofol Cmax, AUC1, AUC2, AUC4” value ([1]; 800 mg, 11 migraine subjects (all female)) was “statistically significant inverse association” and the “Decrease of geometric mean propofol AUC1 per hour of delay in time-to-treatment” value ([1]; 800 mg, linear regression) was 67.2 % per hour. The “Decrease of geometric mean propofol AUC1 per minute of delay in time-to-treatment” value ([1]; 800 mg, linear regression) was 1.84 % per minute, the “Decrease of geometric mean propofol AUC2 per hour of delay in time-to-treatment” value ([1]; 800 mg, linear regression) was 62.5 % per hour and the “Decrease of geometric mean propofol AUC2 per minute of delay in time-to-treatment” value ([1]; 800 mg, linear regression) was 1.62 % per minute. For the same compound, the “Decrease of geometric mean propofol AUC4 per hour of delay in time-to-treatment” value ([1]; 800 mg, linear regression) was 47.7 % per hour, the “Decrease of geometric mean propofol AUC4 per minute of delay in time-to-treatment” value ([1]; 800 mg, linear regression) was 1.08 % per minute and the “Decrease of geometric mean propofol Cmax per hour of delay in time-to-treatment” value ([1]; 800 mg, linear regression) was 58.5 % per hour. For the same compound, the “Decrease of geometric mean propofol Cmax per minute of delay in time-to-treatment” value ([1]; 800 mg, linear regression) was 1.45 % per minute, the “Ratio of mean propofol Auc4, migraine subjects (all female) to female healthy volunteers” value ([1]; Study A17 vs. Study A16 800 mg Cohort, females only) was 91% and the “Dose proportionality of propofol AUC0-2h and Cmax” value ([2]; 200 mg to 2000 mg) was “close proportional”. The “Dose proportionality of propofol AUC0-T and AUC0-∞” value ([2]; 200 mg to 2000 mg) was “slightly greater than close-proportional”, the “Highest observed propofol Cmax relative to the mean Cmax of the cohort” value [2, 3] was “greater than 2 times” and the “Highest observed propofol Cmax: standard deviations above the cohort mean” value [2, 3] was “greater than 2 standard deviations”. For the same compound, the “Dose proportionality of propofol exposure (both Cmax and AUC)” value ([2]; 200 to 2000 mg, preliminary PK data) was “approximately close proportional”, the “Highest observed propofol Cmax relative to mean Cmax” value ([2]; 800-mg cohort) was “approximately 3.7 fold” and the AUC(0-inf) ([2]; oral, 200 mg, Propofol AUC0-inf (arithmetic mean, n=10), after a single 200-mg capsule) was 118 ng·h/mL. The AUC(0-inf) ([2]; oral, 200 mg, Propofol AUC0-inf (geometric mean, n=10), after a single 200-mg capsule) was 112 ng·h/mL, the Cmax ([2]; oral, 200 mg, Propofol Cmax (arithmetic mean, n=10), after a single 200-mg capsule) was 69.4 ng/mL and the Cmax ([2]; oral, 200 mg, Propofol Cmax (geometric mean, n=10), after a single 200-mg capsule) was 61.7 ng/mL. It also gave a Tmax ([2]; oral, 200 mg, Propofol median Tmax, 200-mg dose) of 30 min, a Cmax ([2]; oral, 800 mg, Highest observed propofol Cmax, 800-mg cohort) of 1350 ng/mL and a Cmax ([2]; oral, 800 mg, Mean propofol Cmax, 800 mg cohort) of 362 ng/mL. It also gave an AUC(0-inf) ([2]; oral, 800 mg, Propofol AUC0-inf (arithmetic mean, n=10), single dose of 800 mg (four 200 mg capsules)) of 559 ng·h/mL, a Cmax ([2]; oral, 800 mg, Propofol Cmax (arithmetic mean, n=10), single dose of 800 mg (four 200 mg capsules)) of 362 ng/mL and a Tmax ([2]; oral, 1200 mg, Propofol Tmax (median), fasting conditions) of 37 min. For the same compound, the Tmax ([2]; oral, 2000 mg, Propofol median Tmax, doses of 1600 or 2000 mg) was 45 min, the AUC(0-inf) ([2]; po, 200 mg, Propofol AUC0-∞, oral fospropofol disodium 200 mg, mean) was 118 ng·h/mL and the Cmax ([2]; po, 200 mg, Propofol Cmax Maximum, oral fospropofol disodium 200 mg) was 191 ng/mL. For the same compound, the Cmax ([2]; po, 200 mg, Propofol Cmax Mean (SD), oral fospropofol disodium 200 mg) was 69 ng/mL, the Cmax ([2]; po, 200 mg, Propofol Cmax Minimum, oral fospropofol disodium 200 mg) was 35.1 ng/mL and the Cmax ([2]; po, 200 mg, Propofol Cmax, oral fospropofol disodium 200 mg, mean) was 69 ng/mL. It also gave a Tmax ([2]; po, 200 mg, Propofol Tmax, oral fospropofol disodium 200 mg, median) of 30 min, an AUC(0-inf) ([2]; po, 400 mg, Propofol AUC0-∞, oral fospropofol disodium 400 mg, mean) of 298 ng·h/mL and a Cmax ([2]; po, 400 mg, Propofol Cmax Maximum, oral fospropofol disodium 400 mg) of 499 ng/mL. The Cmax ([2]; po, 400 mg, Propofol Cmax Mean (SD), oral fospropofol disodium 400 mg) was 201 ng/mL, the Cmax ([2]; po, 400 mg, Propofol Cmax Minimum, oral fospropofol disodium 400 mg) was 33.5 ng/mL and the Cmax ([2]; po, 400 mg, Propofol Cmax, oral fospropofol disodium 400 mg, mean) was 201 ng/mL. For the same compound, the Tmax ([2]; po, 400 mg, Propofol Tmax, oral fospropofol disodium 400 mg, median) was 30 min, the AUC(0-inf) ([2]; po, 800 mg, Propofol AUC0-∞, oral fospropofol disodium 800 mg, mean) was 577 ng·h/mL and the Cmax ([2]; po, 800 mg, Propofol Cmax Maximum, oral fospropofol disodium 800 mg) was 1350 ng/mL. It also gave a Cmax ([2]; po, 800 mg, Propofol Cmax Mean (SD), oral fospropofol disodium 800 mg) of 362 ng/mL, a Cmax ([2]; po, 800 mg, Propofol Cmax Minimum, oral fospropofol disodium 800 mg) of 127 ng/mL and a Cmax ([2]; po, 800 mg, Propofol Cmax, oral fospropofol disodium 800 mg, mean) of 362 ng/mL. For the same compound, the Tmax ([2]; po, 800 mg, Propofol Tmax, oral fospropofol disodium 800 mg, median) was 37.2 min, the AUC(0-inf) ([2]; po, 1000 mg, Propofol AUC0-∞, oral fospropofol disodium 1000 mg, mean, n = 9) was 887 ng·h/mL and the Cmax ([2]; po, 1000 mg, Propofol Cmax Maximum, oral fospropofol disodium 1000 mg, n = 9) was 681 ng/mL. The Cmax ([2]; po, 1000 mg, Propofol Cmax Mean (SD), oral fospropofol disodium 1000 mg, n = 9) was 403 ng/mL, the Cmax ([2]; po, 1000 mg, Propofol Cmax Minimum, oral fospropofol disodium 1000 mg, n = 9) was 267 ng/mL and the Cmax ([2]; po, 1000 mg, Propofol Cmax, oral fospropofol disodium 1000 mg, mean, n = 9) was 403 ng/mL. The Tmax ([2]; po, 1000 mg, Propofol Tmax, oral fospropofol disodium 1000 mg, median, n = 9) was 45 min, the Cmax ([2]; po, 1200 mg, Propofol Cmax Maximum, oral fospropofol disodium 1200 mg) was 1190 ng/mL and the Cmax ([2]; po, 1200 mg, Propofol Cmax Mean (SD), oral fospropofol disodium 1200 mg) was 641 ng/mL. For the same compound, the Cmax ([2]; po, 1200 mg, Propofol Cmax Minimum, oral fospropofol disodium 1200 mg) was 193 ng/mL, the Cmax ([2]; po, 1600 mg, Propofol Cmax Maximum, oral fospropofol disodium 1600 mg) was 1170 ng/mL and the Cmax ([2]; po, 1600 mg, Propofol Cmax Mean (SD), oral fospropofol disodium 1600 mg) was 748 ng/mL. The Cmax ([2]; po, 1600 mg, Propofol Cmax Minimum, oral fospropofol disodium 1600 mg) was 229 ng/mL, the AUC(0-inf) ([2]; po, 2000 mg, Propofol AUC0-∞, oral fospropofol disodium 2000 mg, mean) was 2250 ng·h/mL and the Cmax ([2]; po, 2000 mg, Propofol Cmax Maximum, oral fospropofol disodium 2000 mg) was 1620 ng/mL. The Cmax ([2]; po, 2000 mg, Propofol Cmax Mean (SD), oral fospropofol disodium 2000 mg) was 806 ng/mL, the Cmax ([2]; po, 2000 mg, Propofol Cmax Minimum, oral fospropofol disodium 2000 mg) was 200 ng/mL and the Cmax ([2]; po, 2000 mg, Propofol Cmax, oral fospropofol disodium 2000 mg, mean) was 806 ng/mL. It also gave a Tmax ([2]; po, 2000 mg, Propofol Tmax, oral fospropofol disodium 2000 mg, median) of 45 min, an AUC(0-t) [2, 4] of 103 ng·h/mL and a half-life [2, 4] of 228 min. The AUC(0-t) [2, 5] was 276 ng·h/mL, the half-life [2, 5] was 176 min and the AUC(0-t) [2, 6] was 551 ng·h/mL. It also gave a half-life [2, 6] of 116 min, an AUC(0-t) [2, 7] of 846 ng·h/mL and a half-life [2, 7] of 121 min. For the same compound, the half-life [2, 8] was 177 min, the AUC(0-t) [2, 9] was 2000 ng·h/mL and the half-life [2, 9] was 118 min. The “Propofol concentration relative to Cmax” value ([2]; by 4 hours after dosing) was “less than 25 % of Cmax”, the “Propofol Cmax CV” value ([2]; oral fospropofol disodium 200 mg) was 64% and the “Propofol CL/F” value [2, 4] was 1889 L/h. For the same compound, the “Propofol Cmax CV” value ([2]; oral fospropofol disodium 400 mg) was 63%, the “Propofol CL/F” value [2, 5] was 1658 L/h and the “Propofol Cmax CV” value ([2]; oral fospropofol disodium 800 mg) was 99%. For the same compound, the “Propofol CL/F” value [2, 6] was 1561 L/h, the “Propofol CL/F” value [2, 7] was 1213 L/h and the “Propofol Cmax CV” value ([2]; oral fospropofol disodium 1000 mg, n = 9) was 30%. For the same compound, the “Propofol Cmax CV” value ([2]; oral fospropofol disodium 1200 mg) was 46%, the “Propofol CL/F” value ([2]; oral fospropofol disodium 1200 mg, Fasted (Cohort 5), n = 10, mean) was 1260 L/h and the “Propofol CL/F” value ([2]; oral fospropofol disodium 1200 mg, mean) was 1260 L/h. For the same compound, the “Propofol Cmax CV” value ([2]; oral fospropofol disodium 1600 mg) was 44%, the “Propofol CL/F” value [2, 8] was 1182 L/h and the “Propofol Cmax CV” value ([2]; oral fospropofol disodium 2000 mg) was 51%. For the same compound, the “Propofol CL/F” value [2, 9] was 933 L/h.

From patent US12377110B2, “Fospropofol methods and compositions” (Epalex Corporation, priority 2019, dated 2025)
